Where “and” joins values, the source holds several entries; their conditions need not be identical. Equal entries are not always repeated.
Tested on: C57BL/6 mice, Adenocarcinoma 755 sc, tumor weight T/C
Assay: NCI In Vivo Anticancer Drug Screen. Data for tumor model Adenocarcinoma 755 (subcutaneous) in C57BL/6 mice
Conditions: endpoint: mean tumor weight, higher = larger tumour
Procedure: The antitumor activity of compounds was measured in mice bearing transplantable tumors. Survival or tumor size were measured and the results are expressed as the measurement made in the treated group (T) divided by the measurement made in the vehicle treated control group (C). The tumor model used in this assay is Adenocarcinoma 755 (subcutaneous) in C57BL/6 mice

[1] = dose: 15.0 mg/kg/injection, schedule: Q01DX011 (ip), vehicle: saline
[2] = dose: 20.0 mg/kg/injection, schedule: Q01DX011 (ip), vehicle: saline

S=c1nc[nH]c2nc[nH]c12
T/C (dose: 1.5 mg/kg/injection, schedule: Q01DX011 (ip), vehicle: carboxymethylcellulose (CMC)): 26 % of control | T/C (dose: 2.5 mg/kg/injection, schedule: Q01DX011 (ip), vehicle: carboxymethylcellulose (CMC)): 7 % of control | T/C (dose: 2.5 mg/kg/injection, schedule: Q01DX011 (ip), vehicle: saline): 4 % of control | T/C (dose: 5.0 mg/kg/injection, schedule: Q01DX011 (ip), vehicle: saline): 8 % of control and 13 % of control | T/C (dose: 5.0 mg/kg/injection, schedule: Q01DX011 (oral), vehicle: carboxymethylcellulose (CMC)): 1 % of control | T/C (dose: 6.0 mg/kg/injection, schedule: Q01DX011 (ip), vehicle: carboxymethylcellulose (CMC)): 4 % of control | T/C (dose: 10.0 mg/kg/injection, schedule: Q02DX006 (ip), vehicle: other): 2 % of control | T/C [1]: 6 % of control | T/C (dose: 20.0 mg/kg/injection, schedule: Q01DX011 (ip), vehicle: carboxymethylcellulose (CMC)): 2 % of control | T/C (dose: 20.0 mg/kg/injection, schedule: Q01DX011 (oral), vehicle: alkali diluted with saline): 2 % of control | T/C (dose: 20.0 mg/kg/injection, schedule: Q02DX006 (ip), vehicle: other): 2 % of control | T/C (dose: 30.0 mg/kg/injection, schedule: Q02DX006 (ip), vehicle: other): 3 % of control | T/C (dose: 40.0 mg/kg/injection, schedule: Q01DX011 (oral), vehicle: alkali diluted with saline): 2 % of control | T/C (dose: 80.0 mg/kg/injection, schedule: Q01DX011 (oral), vehicle: alkali diluted with saline): 1 % of control | T/C (dose: 320.0 mg/kg/injection, schedule: Q01DX001 (oral), vehicle: alkali diluted with saline): 11 % of control | T/C (dose: 320.0 mg/kg/injection, schedule: Q03DX004 (oral), vehicle: alkali diluted with saline): 1 % of control | T/C (dose: 320.0 mg/kg/injection, schedule: Q07DX002 (oral), vehicle: alkali diluted with saline): 5 % of control | T/C (dose: 480.0 mg/kg/injection, schedule: Q01DX001 (oral), vehicle: alkali diluted with saline): 8 % of control | T/C (dose: 480.0 mg/kg/injection, schedule: Q07DX002 (oral), vehicle: alkali diluted with saline): 4 % of control | T/C (dose: 640.0 mg/kg/injection, schedule: Q01DX001 (oral), vehicle: alkali diluted with saline): 9 % of control | T/C (dose: 640.0 mg/kg/injection, schedule: Q07DX002 (oral), vehicle: alkali diluted with saline): 2 % of control | T/C (dose: 960.0 mg/kg/injection, schedule: Q01DX001 (oral), vehicle: alkali diluted with saline): 11 % of control

Cn1cnc([N+](=O)[O-])c1SCc1ccccc1
T/C (dose: 50.0 mg/kg/injection, schedule: Q01DX011 (ip), vehicle: saline): 52 % of control | T/C (dose: 100.0 mg/kg/injection, schedule: Q01DX011 (ip), vehicle: saline): 49 % of control | T/C (dose: 125.0 mg/kg/injection, schedule: Q01DX011 (ip), vehicle: saline): 33 % of control | T/C (dose: 150.0 mg/kg/injection, schedule: Q01DX011 (ip), vehicle: saline): 54 % of control | T/C (dose: 175.0 mg/kg/injection, schedule: Q01DX011 (ip), vehicle: saline): 66 % of control

Nc1ncnc2n[nH]nc12
T/C [2]: 60 % of control | T/C (dose: 30.0 mg/kg/injection, schedule: Q01DX011 (ip), vehicle: saline): 85 % of control | T/C (dose: 40.0 mg/kg/injection, schedule: Q01DX011 (ip), vehicle: saline): 46 % of control

O=c1[nH]cc(S)c(=O)[nH]1
T/C (dose: 100.0 mg/kg/injection, schedule: Q02DX006 (ip), vehicle: other): 86 % of control | T/C (dose: 125.0 mg/kg/injection, schedule: Q02DX006 (ip), vehicle: other): 76 % of control

Clc1ncnc2c1ncn2C1CCCC1
T/C (dose: 25.0 mg/kg/injection, schedule: Q01DX011 (ip), vehicle: carboxymethylcellulose (CMC)): 79 % of control | T/C (dose: 50.0 mg/kg/injection, schedule: Q01DX011 (ip), vehicle: carboxymethylcellulose (CMC)): 118 % of control | T/C (dose: 75.0 mg/kg/injection, schedule: Q01DX011 (ip), vehicle: carboxymethylcellulose (CMC)): 71 % of control | T/C (dose: 100.0 mg/kg/injection, schedule: Q01DX011 (ip), vehicle: carboxymethylcellulose (CMC)): 18 % of control

CN(Cc1cnc2nc(N)nc(N)c2n1)c1ccc(C(=O)N[C@@H](CCC(=O)O)C(=O)O)cc1
T/C (dose: 0.75 mg/kg/injection, schedule: Q01DX011 (ip), vehicle: saline): 74 % of control | T/C (dose: 1.0 mg/kg/injection, schedule: Q01DX011 (ip), vehicle: saline): 105 % of control | T/C (dose: 1.5 mg/kg/injection, schedule: Q01DX011 (ip), vehicle: saline): 45 % of control | T/C (dose: 2.0 mg/kg/injection, schedule: Q01DX011 (ip), vehicle: saline): 87 % of control

CCCNc1ncnc2c1cnn2C
T/C (dose: 10.0 mg/kg/injection, schedule: Q01DX011 (ip), vehicle: saline): 46 % of control | T/C [1]: 32 % of control | T/C [2]: 13 % of control

CN1CC(=O)N=C1N
T/C (dose: 1000.0 mg/kg/injection, schedule: Q01DX011 (ip), vehicle: saline): 121 % of control

Nc1[nH]c(=S)nc2nc[nH]c12
T/C (dose: 5.0 mg/kg/injection, schedule: Q02DX006 (ip), vehicle: saline): 46 % of control | T/C (dose: 6.0 mg/kg/injection, schedule: Q02DX006 (ip), vehicle: saline): 33 % of control | T/C (dose: 8.0 mg/kg/injection, schedule: Q02DX006 (ip), vehicle: saline): 25 % of control

Reference: PubChem BioAssay AID218 (DTP/NCI, 2004)
